This is an account of results in article PMC3871589, “Evaluation of STAT3 Signaling in ALDH+ and ALDH+/CD44+/CD24− Subpopulations of Breast Cancer Cells” (PLoS ONE, 2013).

For test [1], the system named is STAT3 phosphorylation (Y705). As to the kind of experiment: Western blot of STAT3 phosphorylation in un-separated breast cancer cells. The class given is cell-based, human. As to conditions: un-separated MDA-MB-231, SK-BR-3, SUM159 cells, 10 µM, 24 hours. As for the experimental part:
(§1) After sorting by flow cytometry, ALDH^+ and ALDH^+/CD44^+/CD24^− stem-like cells were cultured in serum-free stem cell medium in ultra-low attachment six-well plates (Corning) to maintain cancer stem cell characteristics. ALDH^−, ALDH^−/CD44^+/CD24^+cells and un-separated cells were cultured in regular medium and replaced with identical stem cell medium for three days before being harvested. To assess the effects of STAT3 inhibitors, ALDH^+ and ALDH^+/CD44^+/CD24^− subpopulations of breast cancer cells were treated with LLL12 (5 µmol/L) of or static (10 µmol/L) for 24 hours. STAT3, or control GFP shRNA lentivirus (CTL ShRNA) was introduced into ALDH^+ breast cancer stem-like cells for 48 hours, then followed by selection with puromycin (0.2 µg/ml) for 72 hours. Antibodies (Cell Signaling Tech.) against phospho-specific STAT3 (Tyrosine 705) (P-STAT3, Y705), ERK1/2 (Threonine 202/Tyrosine 204), cleaved Poly (ADP-ribose) polymerase (PARP), ALDH1, cleaved caspase-3, and GAPDH were used for western blots.
(§2) LLL12 was synthesized in Dr. Pui-Kai Li’s laboratory (College of Pharmacy, The Ohio State University). Un-separated cells were treated with 10 µM of LLL12 or DMSO for 24 hours, and the phosphorylation of STAT3 (Y705), and ERK 1/2 (T202/Y204), and expression of STAT3 downstream genes, cleaved caspase-3, and PARP were detected by Western blots. (JPG) Click here for additional data file.
A general note: Immunoblotting shows a protein as a band on a membrane.

Test [2] relates to ALDH+ subpopulations of SK-BR-3, MDA-MB-231, and SUM159. As to the kind of experiment: Tumorsphere formation, ALDH+ subpopulations. The settings on record: 2.5–10 µmol/L, 10 to 15 days. The class given is cell-based, human. The method, then:
ALDH^+ and ALDH^+/CD44^+/CD24^− cells were plated as single cells in ultra-low attachment six-well plates at a density of 250, 500, 1000 or 50,000 viable cells/well as previously described. On the second day after seeding, the ALDH^+ cancer cells were treated with 2.5–10 µmol/L of LLL12 or Stattic. For tumorsphere forming capacity assay, ALDH^+ or ALDH^− cells were plated as single cells in ultra-low attachment six-well plates at a density of 250, 500 or 1000 viable cells/well. Tumorsphere growth was observed under a microscope 10 to 15 days later.

Test [3] has as its target Yes (Homo sapiens, UniProt P07947). As to the kind of experiment: Kinase profiler assay, Yes. The class given is biochemical. As to conditions: 10 concentrations, 100 µM highest; Table S3. As for the experimental part:
(§3) The effects of LLL12 on twenty six purified human protein kinases were performed at the Millipore UK Limited (Dundee, UK) and Reaction Biology Corp. (Malvern, PA) using the Kinase profiler assay. Assays contained a peptide substrate, purified recombinant human protein kinases to be tested, and gamma-labeled ATP, magnesiumion. Radioactive phosphorylated product was measured and quantitated via a scintillation counter.

The target in test [4] is mTOR (Homo sapiens, UniProt P42345). As to the kind of experiment: Kinase profiler assay, mTOR. The class given is biochemical. The settings on record: bound stated jointly for the other protein kinases; Table S3. The method, then:
as §3

In test [5] the test system is ERK 1/2 (T202/Y204) phosphorylation. As to the kind of experiment: Western blot of ERK phosphorylation in un-separated breast cancer cells. The settings on record: 10 µM, 24 hours. The class given is cell-based, human. The method, then: as §1, §2
Test [6] has as its system STAT3 phosphorylation (Y705). As to the kind of experiment: Western blot of STAT3 phosphorylation in ALDH+ cells. The class given is cell-based, human. The settings on record: LLL12 5 µmol/L or Stattic 10 µmol/L 24 hours, ShRNA 48 hours then puromycin. The method, then:
(§4) The ALDEFLUOR kit (StemCell Technologies) was used to isolate the population with high ALDH enzymatic activity as previously described. Briefly, cells were trypsinized to single cells using 0.05% trypsin and subsequently suspended in ALDEFLUOR assay buffer containing ALDH substrate (BAAA, 1 µmol/l per 1×10^6 cells) and then incubated for 40 minutes at 37°C. For each sample, an aliquot of cells was stained under identical conditions with 15 mmol/L diethylaminobenzaldehyde (DEAB), a specific ALDH inhibitor, as an ALDH^− control. Anti-human PE-CD24 and PE-Cy5-CD44 antibody (BioLegend) were used for CD44/CD24 identification and to separate ALDH^+/CD44^+/CD24^− and ALDH^−/CD44^+/CD24^+ cells when combined with ALDH staining. Analysis was performed using a FACStarPLUS (Becton Dickinion) flow cytometer. To assess the effect of STAT3 inhibitors on the subpopulation of ALDH^+ cells, un-separated breast cancer cells were treated with 5 µmol/L of LLL12 or 10 µmol/L Stattic for 24 hours prior to performing the ALDEFLUOR assay.
After sorting by flow cytometry, ALDH^+ and ALDH^+/CD44^+/CD24^− stem-like cells were cultured in serum-free stem cell medium in ultra-low attachment six-well plates (Corning) to maintain cancer stem cell characteristics. […]

Test [7] concerns ALDH+ subpopulation in MDA-MB-231, SUM159, and SK-BR3 cancer cells. As to the kind of experiment: ALDEFLUOR assay, percentage of ALDH+ subpopulation. Format: cell-based, human. As to conditions: un-separated MDA-MB-231, SUM159, SK-BR3; LLL12 5 µmol/L or Stattic 10 µM, 24 hours. As for the experimental part:
as §4

Test [8] has as its system STAT1. The settings on record: cited from earlier work.

Chain of Yes (P07947 whole entry): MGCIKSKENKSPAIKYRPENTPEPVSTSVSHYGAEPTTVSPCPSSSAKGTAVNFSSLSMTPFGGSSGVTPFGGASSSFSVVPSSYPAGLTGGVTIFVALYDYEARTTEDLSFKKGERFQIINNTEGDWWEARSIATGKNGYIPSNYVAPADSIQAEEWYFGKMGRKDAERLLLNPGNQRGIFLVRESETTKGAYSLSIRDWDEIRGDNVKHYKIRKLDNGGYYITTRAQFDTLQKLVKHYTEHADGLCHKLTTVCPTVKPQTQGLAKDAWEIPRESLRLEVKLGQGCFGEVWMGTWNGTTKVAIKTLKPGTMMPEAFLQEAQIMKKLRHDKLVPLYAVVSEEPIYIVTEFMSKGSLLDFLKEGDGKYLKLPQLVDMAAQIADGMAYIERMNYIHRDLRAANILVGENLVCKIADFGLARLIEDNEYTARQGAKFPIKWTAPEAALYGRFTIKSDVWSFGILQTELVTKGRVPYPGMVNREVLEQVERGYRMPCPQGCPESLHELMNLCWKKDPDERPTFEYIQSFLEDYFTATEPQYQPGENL

The term IC50 denotes the midpoint of a concentration-inhibition curve. As to `NS(=O)(=O)c1cccc2c1C(=O)c1cccc(O)c1C2=O` [LLL12], the STAT3 phosphorylation entry in test [1] was “inhibited”. Moreover, the tumorsphere formation entry in test [2] was “suppress”. Also, the IC50 in test [3] was greater than 100 µM; in test [4] it was no less than 77.9 µM. The “phosphorylation of ERK” value in test [5] is “did not inhibit”. Moreover, in test [6], the “STAT3 phosphorylation in ALDH+ cells” value was “inhibited”. Further, in test [7], the “ALDH+ subpopulation (percentage)” value is given as “decrease”. For the same molecule, the “STAT1 DNA binding activity” value in test [8] is “not”.
